In US20070287752A1, “Ophthalmic Compositions Comprising A Branched, Glycerol Compound” (priority 2006, published 2007):

Tests used:
Assay in all cases: Preservative/disinfectant system efficacy testing (log reduction)
Type in all cases: cell-based
[1] = system: Pseudomonas aeruginosa (ATCC 9027)
Experimental: (§1) The ophthalmic compositions are evaluated in accordance with specific procedures outlined by the US Food & Drug Administration and the International Organization for Standardization for the testing of microbiocidal efficacy.

[2] = system: Candida albicans (ATCC 10231)
Experimental: as §1

[3] = system: Staphylococcus aureus (ATCC 6538)
Experimental: as §1

[4] = system: Serratia marcescens (ATCC 13880)
Experimental: as §1

[5] = system: Fusarium solani (ATCC 36031)
Experimental: as §1

[6] = 1 hr, Table 8A multi-purpose lens care formulation, disinfectant concentrations as in label
[7] = 1 hr, phosphate buffered saline, concentrations as in label (Table 7)
[8] = 4 hr, Table 8A multi-purpose lens care formulation, disinfectant concentrations as in label
[9] = 4 hr, phosphate buffered saline, concentrations as in label (Table 7)
[10] = 1 hr, Table 5A multi-purpose lens care solution, 10% organic soil, disinfectant concentrations as in label
[11] = 1 hr, phosphate buffered saline, 10% organic soil, concentrations as in label (Table 4)
[12] = 4 hr, Table 5A multi-purpose lens care solution, 10% organic soil, disinfectant concentrations as in label
[13] = 4 hr, phosphate buffered saline, 10% organic soil, concentrations as in label (Table 4)

In the case of `CCCCC(CC)CNCC(O)CO` (stereo not drawn) [EHAPD, 3-[(2-ethylhexyl)amino]-1,2-propanediol], the “log reduction P. aeruginosa” value [1, 6] is reported as 1.2, the “log reduction P. aeruginosa” value [1, 7] is reported as 1.4 and the “log reduction P. aeruginosa” value [1, 8] is reported as 1.3. For the same compound, the “log reduction P. aeruginosa” value [1, 9] was 1.4, the “log reduction C. albicans” value [2, 6] was 2.4 and the “log reduction C. albicans” value [2, 7] was >5.0. The “log reduction C. albicans” value [2, 8] was 2.6, the “log reduction C. albicans” value [2, 9] was >5.0 and the “log reduction S. aureus” value [3, 6] was 1.2. For the same compound, the “log reduction S. aureus” value [3, 7] was 1.4, the “log reduction S. aureus” value [3, 8] was 1.2 and the “log reduction S. aureus” value [3, 9] was 1.4. For the same compound, the “log reduction S. marcescens” value [4, 6] was 2.7, the “log reduction S. marcescens” value [4, 7] was 3.3 and the “log reduction S. marcescens” value [4, 8] was 3.2. The “log reduction S. marcescens” value [4, 9] was 3.8, the “log reduction F. solani” value [5, 6] was 2.4 and the “log reduction F. solani” value [5, 7] was 2.3. The “log reduction F. solani” value [5, 8] was 4.8 and the “log reduction F. solani” value [5, 9] was 5.2.
For `CCCCC(CC)CNC(=N)NC(=N)NCCCCCCNC(=N)NC(=N)NCC(CC)CCCC` (stereo not drawn) [alexidine, reference compound], the “log reduction P. aeruginosa” value [1, 10] was 3.5, the “log reduction P. aeruginosa” value [1, 6] was 3.5 and the “log reduction P. aeruginosa” value [1, 11] was 1.6. For the same compound, the “log reduction P. aeruginosa” value [1, 7] was 1.6, the “log reduction P. aeruginosa” value [1, 12] was 3.9 and the “log reduction P. aeruginosa” value [1, 8] was 3.9. The “log reduction P. aeruginosa” value [1, 13] was 2.3, the “log reduction P. aeruginosa” value [1, 9] was 2.3 and the “log reduction C. albicans” value [2, 10] was 2.0. For the same compound, the “log reduction C. albicans” value [2, 6] was 2.0, the “log reduction C. albicans” value [2, 11] was 3.2 and the “log reduction C. albicans” value [2, 7] was 3.2. The “log reduction C. albicans” value [2, 12] was 3.0, the “log reduction C. albicans” value [2, 8] was 3.0 and the “log reduction C. albicans” value [2, 13] was 3.8. For the same compound, the “log reduction C. albicans” value [2, 9] was 3.8, the “log reduction S. aureus” value [3, 10] was 3.3 and the “log reduction S. aureus” value [3, 6] was 3.3. For the same compound, the “log reduction S. aureus” value [3, 11] was 1.4, the “log reduction S. aureus” value [3, 7] was 1.4 and the “log reduction S. aureus” value [3, 12] was 3.8. For the same compound, the “log reduction S. aureus” value [3, 8] was 3.8, the “log reduction S. aureus” value [3, 13] was 1.4 and the “log reduction S. aureus” value [3, 9] was 1.4. For the same compound, the “log reduction S. marcescens” value [4, 10] was 4.1, the “log reduction S. marcescens” value [4, 6] was 4.1 and the “log reduction S. marcescens” value [4, 11] was 2.0. The “log reduction S. marcescens” value [4, 7] was 2.0, the “log reduction S. marcescens” value [4, 12] was >5.2 and the “log reduction S. marcescens” value [4, 8] was >5.2. For the same compound, the “log reduction S. marcescens” value [4, 13] was 3.5, the “log reduction S. marcescens” value [4, 9] was 3.5 and the “log reduction F. solani” value [5, 10] was 3.1. The “log reduction F. solani” value [5, 6] was 3.1, the “log reduction F. solani” value [5, 11] was 2.3 and the “log reduction F. solani” value [5, 7] was 2.3. For the same compound, the “log reduction F. solani” value [5, 12] was 4.2, the “log reduction F. solani” value [5, 8] was 4.2 and the “log reduction F. solani” value [5, 13] was 2.3. For the same compound, the “log reduction F. solani” value [5, 9] was 2.3.
